These results are taken from patent US20120245161A1 (SANOFI, priority 2009, published 2012).

Several values for one entry are separate records, joined by “and”; a condition that tells them apart may be missing. Equal entries are not always repeated. Structures can show the parent of a compound that is named as a salt. Where two headings read alike, the source gives them in different places.

This assay concerns the target T1, recombinant human beta tryptase (Homo sapiens, UniProt P20231).
T1 construct: made in house; host or cells: yeast cells
Kind of assay: beta-Tryptase inhibition, chromogenic enzyme assay (substrate S2366, read at 405 nm). Format: biochemical. The text has this:
Inhibition of this catalytic activity may be measured by the in vitro enzyme assay and the cellular assay.
Tryptase inhibition activity is confirmed using either isolated human lung tryptase or recombinant human beta tryptase expressed in yeast cells. Essentially equivalent results are obtained using isolated native enzyme or the expressed enzyme. The assay procedure employs a 96 well microplate (Costar 3590) using L-pyroglutamyl-L-prolyl-L-arginine-para-nitroanilide (S2366: Quadratech) as substrate (essentially as described by McEuen et. al. Biochem Pharm, 1996, 52, pages 331-340). Assays are performed at room temperature using 0.5 mM substrate (2×Km) and the microplate is read on a microplate reader (Beckman Biomek Plate reader) at 405 nm wavelength.
Materials and Methods for Tryptase primary screen (Chromogenic assay)
S2366 (Stock solutions of 2.5 mM).
Purified recombinant beta Tryptase Stocks of 310 μg/mL. Protocol (Single point determination) • Add 60 μL of diluted substrate (final concentration of 500 μM in assay buffer) to each well • Add compound in duplicates, final concentration of 20 volume 20 • Add enzyme at a final concentration of 50 ng/mL in a volume of 20 • Total volume for each well is 100 • Agitate briefly to mix and incubate at room temp in the dark for 30 minutes • Read absorbencies at […] Each plate has the following controls: • Totals: 60 μL of substrate, 20 μL of buffer (with 0.2% final concentration of DMSO), • 20 μL of enzyme Non-specific: 60 μL of substrate, 40 μL of buffer (with 0.2% DMSO) Totals: 60 μL of substrate, 20 μL of buffer (No DMSO), 20 μL of enzyme Non-specific: 60 μL of substrate, 40 μL of buffer (No DMSO) Protocol (IC50 and Ki determination)
The protocol is essentially the same as above except that the compound is added in duplicates at the following final concentrations: 0.01, 0.03, 0.1, 0.3, 1, 3, 10 μM (All dilutions carried out manually). For every assay, whether single point or IC50 determination, a standard compound is used to derive IC50 for comparison. From the IC50 value, the Ki can be calculated using the following formula: Ki=IC50/(1+[Substrate]/Km).

Where [1] appears, read: Tryptase Ki (nM), Ki calculated from IC50: Ki=IC50/(1+[Substrate]/Km), 0.5 mM substrate, room temperature.
Setting [2] is: Ki calculated from IC50: Ki=IC50/(1+[Substrate]/Km), 0.5 mM substrate, room temperature, read-out: Tryptase Ki.

T1 sequence (P20231 31-275): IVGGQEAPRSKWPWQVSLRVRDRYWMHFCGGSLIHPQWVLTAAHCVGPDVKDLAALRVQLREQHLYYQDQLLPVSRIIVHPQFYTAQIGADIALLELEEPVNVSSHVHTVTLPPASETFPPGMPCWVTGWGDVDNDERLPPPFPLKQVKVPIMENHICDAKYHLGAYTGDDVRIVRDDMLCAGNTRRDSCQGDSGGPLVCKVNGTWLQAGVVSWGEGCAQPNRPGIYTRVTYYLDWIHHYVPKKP

By Ki is commonly meant a dissociation constant, usually derived from enzyme kinetics or from competition with a known ligand. Consider `NCc1ccc(F)c(C2CCN(C(=O)c3cn(CCOCCO)c4c(OC(F)(F)F)cccc34)CC2)c1` [Example 27, [4-(5-Aminomethyl-2-fluoro-phenyl)-piperidin-1-yl]-{1-[2-(2-hydroxy-ethoxy)-ethyl]-7-trifluoromethoxy-1H-indol-3-yl}-methanone hydrochloride], for which, under setting [1], the Ki is 164 nM.
Still for that read-out and setting: as for `CNC(=O)COc1ccc(CN)cc1C1CCN(C(=O)c2cn(CCOC)c3c(OC(F)(F)F)cccc23)CC1` [Example 28, 2-(4-Aminomethyl-2-{1-[1-(2-methoxy-ethyl)-7-trifluoromethoxy-1H-indole-3-carbonyl]-piperidin-4-yl}-phenoxy)-N-methyl-acetamide hydrochloride], the figure is 538 nM.
Turning to `COCCn1cc(C(=O)N2CCC(c3cc(CN)ccc3OCC(=O)N(C)C)CC2)c2cccc(OC(F)(F)F)c21` [Example 29, 2-(4-Aminomethyl-2-{1-[1-(2-methoxy-ethyl)-7-trifluoromethoxy-1H-indole-3-carbonyl]-piperidin-4-yl}-phenoxy)-N,N-dimethyl-acetamide hydrochloride], the inhibition constant Ki under setting [1] was 331 nM.
On the same count and under the same terms, as for `CN1CCCCC1CCn1cc(C(=O)N2CCC(c3cc(CN)ccc3F)CC2)c2ccccc21` (centres unmarked) [Example 30, [4-(5-Aminomethyl-2-fluoro-phenyl)-piperidin-1-yl]-{1-[2-(1-methyl-piperidin-2-yl)-ethyl]-1H-indol-3-yl}-methanone dihydrochloride], the figure is 50 nM; as for `COCCn1cc(C(=O)N2CCC(c3cc(CN)ccc3OCC(N)=O)CC2)c2cccc(C)c21` [Example 31, 2-(4-Aminomethyl-2-{1-[1-(2-methoxy-ethyl)-7-methyl-1H-indole-3-carbonyl]-piperidin-4-yl}-phenoxy)-acetamide hydrochloride], 306 nM.
On the same count and under the same terms, as for `COCCn1cc(C(=O)N2CCC(c3cc(CN)ccc3OCC(N)=O)CC2)c2cccc(OC(F)(F)F)c21` [Example 32, 2-(4-Aminomethyl-2-{1-[1-(2-methoxy-ethyl)-7-trifluoromethoxy-1H-indole-3-carbonyl]-piperidin-4-yl}-phenoxy)-acetamide hydrochloride], the figure is 1280 nM.
For `COCCn1cc(C(=O)N2CCC(c3cc(CN)ccc3OCC(=O)O)CC2)c2cccc(C)c21` [Example 33, (4-Aminomethyl-2-{1-[1-(2-methoxy-ethyl)-7-methyl-1H-indole-3-carbonyl]-piperidin-4-yl}-phenoxy)-acetic acid hydrochloride], the Ki (Tryptase Ki, cell prints its own unit uM under a head in nM) was over 10000 nM.
Consider `NCc1ccc(F)c(C2CCN(C(=O)c3cn(CCCF)c4c(OC(F)(F)F)cccc34)CC2)c1` [Example 34, [4-(5-Aminomethyl-2-fluoro-phenyl)-piperidin-1-yl]-[1-(3-fluoro-propyl)-7-trifluoromethoxy-1H-indol-3-yl]-methanone hydrochloride], for which the Ki under setting [1] is 1010 nM.
On the same count and under the same terms, as for `NCc1ccc(F)c(C2CCN(C(=O)c3cn(CCc4ccncc4)c4ccccc34)CC2)c1` [Example 35, [4-(5-Aminomethyl-2-fluoro-phenyl)-piperidin-1-yl]-[1-(2-pyridin-4-yl-ethyl)-1H-indol-3-yl]-methanone dihydrochloride], the figure is 8.6 nM.
Turning to `CCN(CC)CCn1cc(C(=O)N2CCC(c3cc(CN)ccc3F)CC2)c2ccccc21` [Example 37, [4-(5-Aminomethyl-2-fluoro-phenyl)-piperidin-1-yl]-[1-(2-diethylamino-ethyl)-1H-indol-3-yl]-methanone dihydrochloride], the inhibitory constant (Ki) under setting [2] is 87 nM.
Regarding `NCc1ccc(F)c(C2CCN(C(=O)c3cn(CCN4CCCC4)c4ccccc34)CC2)c1` [Example 38, [4-(5-Aminomethyl-2-fluoro-phenyl)-piperidin-1-yl]-[1-(2-pyrrolidin-1-yl-ethyl)-1H-indol-3-yl]-methanone dihydrochloride], the Ki under setting [2] was 66 nM.
`COCCn1cc(C(=O)N2CCC(c3cc(CN)ccc3F)CC2)c2cccc(F)c21` [Example 39, [4-(5-Aminomethyl-2-fluoro-phenyl)-piperidin-1-yl]-[7-fluoro-1-(2-methoxy-ethyl)-1H-indol-3-yl]-methanone hydrochloride]: the Ki under setting [1] is 10 nM.
Take `NCc1ccc(F)c(C2CCN(C(=O)c3cn(CCc4ccccn4)c4ccccc34)CC2)c1` [Example 40, [4-(5-Aminomethyl-2-fluoro-phenyl)-piperidin-1-yl]-[1-(2-pyridin-2-yl-ethyl)-1H-indol-3-yl]-methanone dihydrochloride]: the Ki under setting [2] was 25 nM.
The same measure, in the same setting: as for `NCc1ccc(F)c(C2CCN(C(=O)c3cn(CCN4CCCCC4)c4ccccc34)CC2)c1` [Example 41, [4-(5-Aminomethyl-2-fluoro-phenyl)-piperidin-1-yl]-[1-(2-piperidin-1-yl-ethyl)-1H-indol-3-yl]-methanone dihydrochloride], the figure is 62 nM.
The same measure, in the same setting: as for `COCCn1cc(C(=O)N2CCC(c3cc(CN)ccc3F)CC2)c2c(Cl)cccc21` [Example 42, [4-(5-Aminomethyl-2-fluoro-phenyl)-piperidin-1-yl]-[4-chloro-1-(2-methoxy-ethyl)-1H-indol-3-yl]-methanone], the figure is 123 nM.
`CCCCn1cc(C(=O)N2CCC(c3cc(CN)ccc3F)CC2)c2cccc(OC(F)(F)F)c21` [Example 43, [4-(5-Aminomethyl-2-fluoro-phenyl)-piperidin-1-yl]-(1-butyl-7-trifluoromethoxy-1H-indol-3-yl)-methanone hydrochloride]: the Ki under setting [1] was 850 nM.
For the compound `COCCn1cc(C(=O)N2CCC(c3cc(CN)ccc3F)CC2)c2c(C)cccc21` [Example 44, [4-(5-Aminomethyl-2-fluoro-phenyl)-piperidin-1-yl]-[1-(2-methoxy-ethyl)-4-methyl-1H-indol-3-yl]-methanone hydrochloride], under setting [1], the inhibition constant (Ki) was 51 nM.
The same measure, in the same setting: as for `NCc1ccc(F)c(C2CCN(C(=O)c3cn(CC(F)(F)c4ccccc4)c4ccccc34)CC2)c1` [Example 45, [4-(5-Aminomethyl-2-fluoro-phenyl)-piperidin-1-yl]-[1-(2,2-difluoro-2-phenyl-ethyl)-1H-indol-3-yl]-methanone hydrochloride], the figure is 753 nM; as for `CCCCn1cc(C(=O)N2CCC(c3cc(CN)ccc3F)CC2)c2c(OC)cccc21` [Example 46, [4-(5-Aminomethyl-2-fluoro-phenyl)-piperidin-1-yl]-(1-butyl-4-methoxy-1H-indol-3-yl)-methanone hydrochloride], 94 nM; as for `COCCn1cc(C(=O)N2CCC(c3cc(CN)ccc3F)CC2)c2c(OC)cccc21` [Example 47, [4-(5-Aminomethyl-2-fluoro-phenyl)-piperidin-1-yl]-[4-methoxy-1-(2-methoxy-ethyl)-1H-indol-3-yl]-methanone hydrochloride], 56 nM and 59 nM.
Same read-out and setting: the result for `COCCn1cc(C(=O)N2CCC(c3cc(CN)ccc3F)CC2)c2c(Br)cccc21` [Example 48, [4-(5-Aminomethyl-2-fluoro-phenyl)-piperidin-1-yl]-[4-bromo-1-(2-methoxy-ethyl)-1H-indol-3-yl]-methanone hydrochloride] reads 125 nM; that for `NCc1ccc(F)c(C2CCN(C(=O)c3cn4c5c(cccc35)OCC4)CC2)c1` [Example 49, [4-(5-Aminomethyl-2-fluoro-phenyl)-piperidin-1-yl]-(2,3-dihydro-pyrrolo[1,2,3-de]-1,4-benzoxazin-6-yl)-methanone hydrochloride], 291 nM; that for `CC(C)(O)CCn1cc(C(=O)N2CCC(c3cc(CN)ccc3F)CC2)c2ccccc21` [Example 50, [4-(5-Aminomethyl-2-fluoro-phenyl)-piperidin-1-yl]-[1-(3-hydroxy-3-methyl-butyl)-1H-indol-3-yl]-methanone hydrochloride], 241 nM.
Consider `COCCn1cc(C(=O)N2CCC(c3cc(CN)ccc3F)CC2)c2c(F)cccc21` [Example 51, [4-(5-Aminomethyl-2-fluoro-phenyl)-piperidin-1-yl]-[4-fluoro-1-(2-methoxy-ethyl)-1H-indol-3-yl]-methanone hydrochloride], for which the Ki under setting [1] is 54 nM.
Take `COCCn1cc(C(=O)N2CCC(c3cc(CN)ccc3F)CC2)c2c(C3CC3)cccc21` [Example 52, [4-(5-Aminomethyl-2-fluoro-phenyl)-piperidin-1-yl]-[4-cyclopropyl-1-(2-methoxy-ethyl)-1H-indol-3-yl]-methanone hydrochloride]: the Ki under setting [1] was 49 nM.
Take `COCCn1cc(C(=O)N2CCC(c3cc(CN)ccc3F)CC2)c2c(C(F)(F)F)cccc21` [Example 53, [4-(5-Aminomethyl-2-fluoro-phenyl)-piperidin-1-yl]-[1-(2-methoxy-ethyl)-4-trifluoromethyl-1H-indol-3-yl]-methanone hydrochloride]: under setting [1], the Ki is 289 nM.
